Laboratory results reported in ChEMBL document CHEMBL1145940, “Computer modeling of selective regions in the active site of nitric oxide synthases: implication for the design of isoform-selective inhibitors” (J Med Chem, 2003).
Peptide text beside a SMILES is read from it.

Tests used:
[1] = Inhibitory activity against endothelial nitric oxide synthase (eNOS)
[2] = Inhibitory activity against Inducible nitric oxide synthase
[3] = Selectivity for neuronal over endothelial nitric oxide synthase
[4] = Inhibitory activity against neuronal nitric oxide synthase

SMILES	Ki [1]	Ki [2]	Selectivity [3]	Ki [4]
Cc1c(C)c2c(c(C)c1O)CC[C@@](C)(C(=O)C1CCC(c3ccc(NC(=N)c4cccs4)cc3)CC1)O2 (stereo partly drawn)	110 µM	> 300 µM	–	–
COC(=O)[C@@H](CCCNC(=N)N[N+](=O)[O-])NC(=O)[C@H](N)Cc1ccccc1 (HELM PEPTIDE1{[dF].[N=C(NCCC[C@@H](N[*:1])C(=O)[*:2])N[N+](=O)[O-]].[CO[*:1]]}$$$$V2.0)	5 µM	3600 µM	2.5	2 µM
NCCc1ccc(NC[C@@H](N)CCC/N=C(\N)N[N+](=O)[O-])cc1	–	–	–	1.66 µM
N/C(=N/CCC[C@H](N)CNc1cccnc1)N[N+](=O)[O-]	523 µM	141 µM	951	0.55 µM
NC(=O)[C@H](N)NC(=O)[C@@H](N)CCC/N=C(/N)N[N+](=O)[O-]	261 µM	61 µM	237	1.1 µM
NCCCC[C@H](N)C(=O)N[C@H](CCC/N=C(\N)N[N+](=O)[O-])C(N)=O (HELM PEPTIDE1{K.[N=C(NCCC[C@@H](N[*:1])C(=O)[*:2])N[N+](=O)[O-]].[am]}$$$$V2.0)	229 µM	4700 µM	–	1.7 µM
NC[C@H](NC(=O)[C@@H](N)CCC/N=C(\N)N[N+](=O)[O-])C(N)=O (HELM PEPTIDE1{[N=C(NCCC[C@H](N)C(=O)[*:2])N[N+](=O)[O-]].[NC[C@H](N[*:1])C(=O)[*:2]].[am]}$$$$V2.0)	200 µM	25 µM	–	0.31 µM
N/C(=N\CCC[C@H](N)CNCc1cccnc1)N[N+](=O)[O-]	193 µM	395 µM	254	0.76 µM
NCNC[C@@H](N)CCC/N=C(/N)N[N+](=O)[O-]	314 µM	39 µM	2580	0.12 µM
NCCCC[C@@H](N)C(=O)N[C@H](CCC/N=C(/N)N[N+](=O)[O-])C(N)=O (HELM PEPTIDE1{[dK].[N=C(NCCC[C@@H](N[*:1])C(=O)[*:2])N[N+](=O)[O-]].[am]}$$$$V2.0)	30 µM	910 µM	–	0.89 µM
N/C(=N\CCC[C@@H](NC(=O)[C@H](N)Cc1ccccc1)C(=O)O)N[N+](=O)[O-] (HELM PEPTIDE1{[dF].[N=C(NCCC[C@@H](N[*:1])C(=O)O)N[N+](=O)[O-]]}$$$$V2.0)	90 µM	13600 µM	5.3	17 µM
NCCCNC[C@@H](N)CCC/N=C(\N)N[N+](=O)[O-]	411 µM	123 µM	–	–
CCCCC[C@H]1NC(=N)C[C@H]1C	226 µM	0.25 µM	–	3.2 µM
COC(=O)[C@@H](CCC/N=C(\N)N[N+](=O)[O-])NC(=O)[C@@H](N)Cc1ccccc1 (HELM PEPTIDE1{F.[N=C(NCCC[C@@H](N[*:1])C(=O)[*:2])N[N+](=O)[O-]].[CO[*:1]]}$$$$V2.0)	150 µM	7500 µM	1.7	90 µM
NC(=O)[C@@H](CCC/N=C(/N)N[N+](=O)[O-])NC(=O)[C@H](N)Cc1ccccc1	90 µM	–	5.3	17 µM
NCc1cccc(NC[C@@H](N)CCC/N=C(\N)N[N+](=O)[O-])c1	194 µM	80 µM	–	0.21 µM
NCc1ccc(NC[C@@H](N)CCC/N=C(\N)N[N+](=O)[O-])cc1	409 µM	335 µM	299	1.37 µM
NCc1ccccc1NC[C@@H](N)CCC/N=C(\N)N[N+](=O)[O-]	39.8 µM	29.3 µM	7.17	5.55 µM
[H]/N=C(/NCCC[C@H](N)C(=O)N[C@H]1CNC(C(N)=O)C1)N[N+](=O)[O-] (stereo partly drawn)	–	29.5 µM	–	0.074 µM
N=C(NCCC[C@H](N)C(=O)N[C@@H]1CN[C@@H](C(N)=O)C1)N[N+](=O)[O-]	110 µM	200 µM	–	–
